Experimental data: publication PMC10504751, “Chalcone/1,3,4-Oxadiazole/Benzimidazole hybrids as novel anti-proliferative agents inducing apoptosis and inhibiting EGFR & BRAFV^600E” (BMC Chemistry, 2023)
Where “and” joins values, the source holds several entries; their conditions need not be identical. Equal values may be shown once.

Columns and labels:
[1] = tested on: Caspase-8 in MCF-7 breast cancer cells; assay: Caspase-8 assay; assay type: cell-based, human
[2] = biological target: BRAF^V600E; assay: biochemical
Procedure: To further denature the protein, heat (70° C) was applied for 5 min. […] 10 µL of each reaction was loaded into the precast plates and electrophoresis was allowed to proceed. After completion of electrophoresis, the front part of the precast gel plate (holding hot ATP) was cut and afterwards cast-off. The dried gel was developed using a phosphor screen.

[3] = tested on: Caspase-9 in MCF-7 breast cancer cells; assay: Caspase-9 assay; assay type: cell-based, human
[4] = tested on: NCI-H322M; assay: NCI one-dose SRB anti-proliferative screen; assay type: cell-based; settings: Homo sapiens; NCI-H322M, Non-Small Cell Lung Cancer; NCI one dose; read-out: Cell growth inhibition %
How it was run: (§1)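 A sixty-line panel from nine tumour subpanels received each compound at 10 µM in a single-dose format; proliferation was then determined by SRB colorimetry.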

[5] = tested on: SK-MEL-5; assay: NCI one-dose SRB anti-proliferative screen; assay type: cell-based; settings: Homo sapiens; SK-MEL-5, Melanoma; NCI one dose; read-out: Cell growth inhibition %
How it was run: as §1

[6] = tested on: SF-539; assay: NCI one-dose SRB anti-proliferative screen; assay type: cell-based; settings: Homo sapiens; SF-539, CNS Cancer; NCI one dose; read-out: Cell growth inhibition %
How it was run: as §1

[7] = tested on: HCC-2998; assay: NCI one-dose SRB anti-proliferative screen; assay type: cell-based; settings: Homo sapiens; HCC-2998, Colon cancer; NCI one dose; read-out: Cell growth inhibition %
How it was run: as §1

[8] = tested on: MDA-MB-231/ATCC; assay: NCI one-dose SRB anti-proliferative screen; assay type: cell-based; settings: Homo sapiens; MDA-MB-231/ATCC, Breast cancer; NCI one dose; read-out: Cell growth inhibition %
How it was run: as §1

[9] = tested on: A549/ATCC; assay: NCI one-dose SRB anti-proliferative screen; assay type: cell-based; settings: Homo sapiens; A549/ATCC, Non-Small Cell Lung Cancer; NCI one dose; read-out: Cell growth inhibition %
How it was run: as §1

[10] = tested on: SNB-19; assay: NCI one-dose SRB anti-proliferative screen; assay type: cell-based; settings: Homo sapiens; SNB-19, CNS Cancer; NCI one dose; read-out: Cell growth inhibition %
How it was run: as §1

[11] = tested on: COLO 205; assay: NCI one-dose SRB anti-proliferative screen; assay type: cell-based; settings: Homo sapiens; COLO 205, Colon cancer; NCI one dose; read-out: Cell growth inhibition %
How it was run: as §1

[12] = tested on: NCI-H522; assay: NCI one-dose SRB anti-proliferative screen; assay type: cell-based; settings: Homo sapiens; NCI-H522, Non-Small Cell Lung Cancer; NCI one dose; read-out: Cell growth inhibition %
How it was run: as §1

[13] = tested on: SNB-75; assay: NCI one-dose SRB anti-proliferative screen; assay type: cell-based; settings: Homo sapiens; SNB-75, CNS Cancer; NCI one dose; read-out: Cell growth inhibition %
How it was run: as §1

[14] = tested on: M14; assay: NCI one-dose SRB anti-proliferative screen; assay type: cell-based; settings: Homo sapiens; M14, Melanoma; NCI one dose; read-out: Cell growth inhibition %
How it was run: as §1

[15] = tested on: MALME-3M; assay: NCI one-dose SRB anti-proliferative screen; assay type: cell-based; settings: Homo sapiens; MALME-3M, Melanoma; NCI one dose; read-out: Cell growth inhibition %
How it was run: as §1

[16] = tested on: SF-268; assay: NCI one-dose SRB anti-proliferative screen; assay type: cell-based; settings: Homo sapiens; SF-268, CNS Cancer; NCI one dose; read-out: Cell growth inhibition %
How it was run: as §1

[17] = tested on: TK-10; assay: NCI one-dose SRB anti-proliferative screen; assay type: cell-based; settings: Homo sapiens; TK-10, Renal cancer; NCI one dose; read-out: Cell growth inhibition %
How it was run: as §1

[18] = tested on: A498; assay: NCI one-dose SRB anti-proliferative screen; assay type: cell-based; settings: Homo sapiens; A498, Renal cancer; NCI one dose; read-out: Cell growth inhibition %
How it was run: as §1

[19] = tested on: MDA-MB-435; assay: NCI one-dose SRB anti-proliferative screen; assay type: cell-based; settings: Homo sapiens; MDA-MB-435, Melanoma; NCI one dose; read-out: Cell growth inhibition %
How it was run: as §1

[20] = tested on: NCI/ADR-RES; assay: NCI one-dose SRB anti-proliferative screen; assay type: cell-based; settings: Homo sapiens; NCI/ADR-RES, Ovarian Cancer; NCI one dose; read-out: Cell growth inhibition %
How it was run: as §1

[21] = tested on: HL-60(TB); assay: NCI one-dose SRB anti-proliferative screen; assay type: cell-based; settings: Homo sapiens; HL-60(TB), Leukemia; NCI one dose; read-out: Cell growth inhibition %
How it was run: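 Activity reflects a single-point exposure at 10 µM, with cell mass determined by a sulforhodamine B dye assay.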

[22] = tested on: HOP-92; assay: NCI one-dose SRB anti-proliferative screen; assay type: cell-based; settings: Homo sapiens; HOP-92, Non-Small Cell Lung Cancer; NCI one dose; read-out: Cell growth inhibition %
How it was run: as §1

[23] = tested on: SK-MEL-28; assay: NCI one-dose SRB anti-proliferative screen; assay type: cell-based; settings: Homo sapiens; SK-MEL-28, Melanoma; NCI one dose; read-out: Cell growth inhibition %
How it was run: as §1

[24] = biological target: T1, EGFR (Homo sapiens, UniProt P00533); assay: EGFR-TK inhibitory assay; assay type: biochemical; settings: read-out: EGFR Inhibition IC50 ± SEM
T1 construct: EGFR cytoplasmic domain (EGFR-CD, amino acids 645–1186); His6 (N); made in house; host or cells: Sf-9 insect cells (baculovirus; pBlueBacHis2B / pFASTBacHTc)

[25] = tested on: Caspase-3 in MCF-7 breast cancer cells; assay: Caspase-3 assay
[26] = tested on: melanoma LOX-IMVI cell line; assay: Propidium iodide anti-proliferative assay in LOX-IMVI; assay type: cell-based, human
Procedure: Consequently, the half-maximal inhibitory concentration (IC50) of these compounds was determined in LOX-IMVI cell line using propidium iodide (PI)^31, 32 with Staurosporine (broad spectrum protein kinase inhibitor) as a reference.
Cells whose cell membranes are damaged or have changed permeability are counted as dead ones. […] The medium was removed; the compounds were added to the plates at 10 µM concentrations (in 0.1% DMSO) in triplicates, followed by incubation for 48 h. DMSO (0.1%) was used as control. After incubation, medium was removed followed by the addition of PI (25 µl, 50µg/mL in water/medium) to each well of the plates. At -80 °C, the plates were allowed to freeze for 24 h, followed by thawing at 25 °C. A fluorometer (Polar-Star BMG Tech) was used to record the readings at excitation and emission wavelengths of 530 and 620 nm for each well. The percentage cytotoxicity of compounds was calculated using the following formula:
Where ATC= Absorbance of treated cells and AC= Absorbance of control.

Sequence of BRAF^V600E (P28028 whole entry V585E): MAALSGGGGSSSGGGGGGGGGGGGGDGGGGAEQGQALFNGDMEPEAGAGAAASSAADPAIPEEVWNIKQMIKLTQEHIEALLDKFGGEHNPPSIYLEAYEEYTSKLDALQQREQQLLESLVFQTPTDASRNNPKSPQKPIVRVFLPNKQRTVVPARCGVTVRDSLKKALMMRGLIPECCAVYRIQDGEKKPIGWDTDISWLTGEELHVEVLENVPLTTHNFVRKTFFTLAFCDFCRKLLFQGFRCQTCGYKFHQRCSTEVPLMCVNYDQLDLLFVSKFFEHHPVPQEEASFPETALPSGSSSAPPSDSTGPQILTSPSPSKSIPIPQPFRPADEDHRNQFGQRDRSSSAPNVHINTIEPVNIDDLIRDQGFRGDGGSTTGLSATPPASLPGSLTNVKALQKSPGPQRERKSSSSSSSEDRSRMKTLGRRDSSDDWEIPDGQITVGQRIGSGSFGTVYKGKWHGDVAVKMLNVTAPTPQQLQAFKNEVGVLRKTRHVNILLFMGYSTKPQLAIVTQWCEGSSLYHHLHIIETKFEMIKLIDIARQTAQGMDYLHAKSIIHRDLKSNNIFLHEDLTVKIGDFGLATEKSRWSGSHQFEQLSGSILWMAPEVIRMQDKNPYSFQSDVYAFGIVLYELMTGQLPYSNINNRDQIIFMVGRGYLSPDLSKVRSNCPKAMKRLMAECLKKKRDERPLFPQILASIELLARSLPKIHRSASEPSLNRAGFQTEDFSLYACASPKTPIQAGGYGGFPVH
T1 sequence (P00533 669-1210): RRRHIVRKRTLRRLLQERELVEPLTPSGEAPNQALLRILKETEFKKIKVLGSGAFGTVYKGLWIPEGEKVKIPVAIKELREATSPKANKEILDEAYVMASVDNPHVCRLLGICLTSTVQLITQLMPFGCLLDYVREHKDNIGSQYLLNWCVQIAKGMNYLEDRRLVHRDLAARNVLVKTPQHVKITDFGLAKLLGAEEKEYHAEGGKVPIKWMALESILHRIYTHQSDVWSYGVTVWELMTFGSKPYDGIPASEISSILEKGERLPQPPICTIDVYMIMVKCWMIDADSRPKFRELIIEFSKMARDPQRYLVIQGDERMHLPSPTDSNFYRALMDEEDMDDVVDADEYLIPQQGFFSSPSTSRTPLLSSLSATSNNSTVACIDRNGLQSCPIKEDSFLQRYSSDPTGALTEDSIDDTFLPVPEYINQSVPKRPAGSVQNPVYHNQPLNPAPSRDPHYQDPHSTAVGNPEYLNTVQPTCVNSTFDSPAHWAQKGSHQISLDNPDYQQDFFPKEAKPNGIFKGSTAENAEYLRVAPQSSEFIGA

With `COc1ccc(-c2nc3cc(-c4nnc(SCC(=O)Nc5ccc(C(=O)/C=C/c6ccc(Cl)cc6)cc5)o4)ccc3[nH]2)cc1` [Compound 7l, 2-{5-[2-(4-Methoxyphenyl)-1 H-benzo[d]imidazol-5-yl]-1,3,4-oxadiazol-2-ylthio}-N-{4-[(E)-3-(4-chlorophenyl)acryloyl]phenyl}acetamide] the “Caspase-8 Fold change” value ([1]; MCF-7, vs untreated control) was 9 fold and 9.30 fold, the “Caspase-8 Conc” value ([1]; MCF-7 breast cancer cells) was 1.570 ng/mL and the IC50 [2] was 1900 ± 200 nM. For the same molecule, the “Caspase-9 Fold change” value ([3]; MCF-7, vs untreated control) was 16 fold and 16.00 fold, the “Caspase-9 Conc” value ([3]; MCF-7 breast cancer cells) was 15.100 ng/mL and the inhibition at 10 µM [4] was 0%. For the same molecule, the inhibition at 10 µM [5] was 1.12%, the inhibition at 10 µM [6] was 12.9% and the inhibition at 10 µM [7] was 0%. For the same molecule, the inhibition at 10 µM [8] was 5.19%, the inhibition at 10 µM [9] was 0% and the inhibition at 10 µM [10] was 0%. It also gave an inhibition at 10 µM [11] of 0%, an inhibition at 10 µM [12] of 4.71% and an inhibition at 10 µM [13] of 5.35%. It also gave an inhibition at 10 µM [14] of 0%, an inhibition at 10 µM [15] of 3.9% and an inhibition at 10 µM [16] of 5.15%. For the same molecule, the inhibition at 10 µM [17] was 0%, the inhibition at 10 µM [18] was 15.7% and the inhibition at 10 µM [19] was 0.7%. The inhibition at 10 µM [20] was 0%, the inhibition at 10 µM [21] was 5.86% and the inhibition at 10 µM [22] was 5.04%. The inhibition at 10 µM [23] was 0%, the IC50 [24] was 800 ± 100 nM and the “Caspase-3 Fold change” value ([25]; MCF-7, vs untreated control) was 7.50 fold. The “Caspase-3 Conc” value ([25]; MCF-7 breast cancer cells) was 492.50 ± 4.00 pg/mL, the IC50 ([26]; Homo sapiens, melanoma LOX-IMVI, 48 h incubation) was 800 ± 100 nM and the “fold more selective towards LOX-IMVI cell line” value ([26]; LOX-IMVI vs MCF-10 A) was 111 fold.
